Experimental data published in patent US20240132511A1, “TREATMENTS OF PRADER-WILLI SYNDROME” (Neuren Pharmaceuticals Limited, priority 2021, published 2024).

Experiments:
[1] = test system: subjects with Prader-Willi syndrome; assay: Proposed randomized, double-blind placebo controlled study in subjects with Prader-Willi syndrome; format: in vivo, human
Source text: For the proposed study thirty subjects with Prader-Willi syndrome are recruited. Subjects are females and males aged between 4 and 20 years (Mean=12.1 SD=4.4). All subjects have confirmed loss of function in the 15q11-q13 region on the paternal copy of chromosome 15 and also meet diagnostic criteria for Prader-Willi syndrome based on assessment of behavioral and somatic symptoms. The majority of subjects (72%) are being treated with rhGH at screening. Subjects are instructed that concomitant medications are to be stable for at least six weeks prior to study.
The study is a randomized, double-blind placebo controlled parallel study with subjects randomized 1:1:1 to placebo, 6 mg/kg or 12 mg/kg of Cyclo-L-Glycyl-L-2-Allylproline is to be administered as an oral liquid twice daily for eighty-four days.
Subjects are tested at baseline using the following instruments: the Hyperphagia Questionnaire for Clinical Trials (HQ-CT), the Clinical Global Impression of Severity (CGI-S), the Caregiver Global Impression of Change (CaGI-I), the Aberrant Behavior Checklist (ABC) and ABC Subscales, the Social Responsiveness Scale, the Repetitive Behavior Scale-Revised (RBS-R), the PWS Anxiety and Distress Questionnaire (PADQ) and the Children's Yale-Brown Obsessive-Compulsive Scale (CY-BOCS). In addition, the following measurements are made at baseline: Body Fat Assessment (BFA), fasting blood glucose, blood lipids (HDL, LDL, VLDL, triglycerides), serum IGF-1 (total, bound to IGF-1 Binding Protein-3 [IGFBP-3]), fasting insulin and the Homeostatic Model Assessment for Insulin Resistance (HOMA-IR).
The effect of treatment with Cyclo-L-Glycyl-L-2-Allylproline is analyzed by conducting a repeated analysis of covariance (ANCOVA) on change from baseline scores for each of the measures plus the Clinical Global Impression of Change (CGI-I). Safety is assessed using caregiver reports of adverse events, a panel of standard laboratory tests and electrocardiograms (ECG).

Magel2-null mice [2] = assay: Partition test of social preference; format: in vivo, mouse; design: key: **** = p < 0.0001; ns = not significant
Source text: (§1) The mouse locus 7qB4/B5 (syntenic with the Prader-Willi region at chromosome position 15q11-q13 in humans) encompasses the cluster of paternally-expressed imprinted genes Magel2, Ndn, Mkrn3, and Peg12. As maternal imprinting silences the Magel2 allele, only the paternally inherited Magel2 allele is expressed. Heterozygous females were bred with wild-type males (or C57BL/6J inbred males) to maintain the line; as the resulting offspring will have no abnormal phenotype. To obtain “Magel2-null” offspring (both maternal and paternal Magel2 alleles are non-functional), wild-type females are bred with heterozygous males; allowing maternal transmission of the imprinted/silenced wild-type allele and paternal transmission of the Magel2-lacZ (null) allele. Magel2-null mice have disrupted circadian rhythm and metabolism, total activity, food consumption, weight before weaning, and fertility in both sexes, as well as increased adiposity after weaning and altered behavior. Magel2-null mice on this C57BL/6J genetic background recapitulate Prader-Willi syndrome. Because the genetic mutation in the Magel2-null animals is the same as the mutation in human beings, studies in Magel2-null mice are reasonably predictive of effects of compounds in human beings.
(§2) In vivo experiments were conducted in C57BL/6-Magel2tm1Stw/J (Magel2-null) mice at age P60 and their wild-type littermates during the light phase (littermates that were wild-type for Magel2 were used as controls). Ten mice per treatment group were used for studies 1 and 2, and six mice per group for study 3. In study 1: C57BL/6-Magel2tm1Stw/J (Magel2-null) mice were assessed on behavioral assays. Study 2 tested the efficacy of cG-2-AllylP in treating obesity and insulin levels in Magel2-null mice. Study 3 tested the IGF-1 level in Magel2-null mice. Because human beings have the same genetic abnormality, studies of Magel2-null mice are reasonably predictive of effects of compounds of Formulas I, II, III and IV in human beings with Prader-Willi Syndrome.
(§3) Testing was performed during the light phase of the circadian cycle, with the order of testing being determined by the principle of conducting the most stressful tests last. Assays were designed to reproduce and expand on the original behavioral characterization of Magel2-null mice. Magel2-null and wild-type control mice were dosed once daily for 6 weeks prior to testing and tested 30 minutes following a dose of cG-2-AllylP (NNZ2591). Study groups and the treatment matrix are described in Table 2 below.
(§4) People with Prader-Willi Syndrome show deficits in social behavior compared with people without Prader-Willi Syndrome. Two tests were carried out to assess the social behavior deficits of Magel2-null mice.
The partition test of social preference measures the preference shown for an object versus a familiar mouse.

Magel2-null mice [3] = assay: Insulin levels in female Magel2-null mice; format: in vivo, mouse; design: key to Insulin, significance: **** = p < 0.0001; ns = not significant
Protocol: as §2, §3
Prader-Willi Syndrome is associated with metabolic and hormonal abnormalities in humans. Magel2-null mice recapitulate some of the metabolic and hormonal aspects of humans with Prader-Willi Syndrome. Experiments were conducted to determine if cG-2-AllylP could have a normalizing effect in metabolic and hormonal aspects.
Because female Magel2-null mice present a significant increase in body weight compared with their littermate wild-type controls, female Magel2-null mice were used for this study.
Insulin was measured for each group.

Magel2-null mice [4] = assay: Elevated Plus Maze (time in open arms); format: in vivo, mouse; design: key: **** = p < 0.0001; ns = not significant
Source text: as §1, §2, §3
The Elevated Plus Maze test is used to assess anxiety related behaviors. Normal mice show a preference for being in closed arms over open arms.

Magel2-null mice [5] = assay: Sniffing test of social interaction; format: in vivo, mouse; design: key: **** = p < 0.0001; ns = not significant
Source text: as §1, §2, §3, §4
The sniffing test of social interaction measures the number of sniffing events.

[6] = 6 mg/kg or 12 mg/kg oral liquid twice daily for eighty-four days
[7] = 6 mg/kg or 12 mg/kg oral liquid twice daily for eighty-four days vs placebo
[8] = Magel2-null + Vehicle vs. Magel2-null + NNZ2591 (100 mg/kg)
[9] = Magel2-null + Vehicle vs. Magel2-null + NNZ2591 (200 mg/kg)
[10] = WT + NNZ2591 (100 mg/kg) vs. Magel2-null + NNZ2591 (100 mg/kg)
[11] = WT + NNZ2591 (200 mg/kg) vs. Magel2-null + NNZ2591 (200 mg/kg)
[12] = WT + Vehicle vs. WT + NNZ2591 (200 mg/kg)
[13] = Magel2-null + NNZ2591 200 mg/kg

C=CCC12CCCN1C(=O)CNC2=O [cG-2-AllylP, (8aS)-Allyl-hexahydropyrrolo[1,2-a]pyrazine-1,4-dione]
Duration and severity of adverse events [1, 6]: short duration and mild severity
Serious Adverse Events [1, 6]: No Serious Adverse Events are reported
Incidence of treatment-emergent adverse events [1, 7]: no difference in the incidence of treatment-emergent adverse events between placebo and either dose
Laboratory tests and ECG measures [1, 7]: no treatment-related pattern of abnormalities on laboratory tests or ECG measures
Social preference, Sidak's multiple comparisons test, Summary (Magel2-null mice [2]; [8]): **** (**** = p < 0.0001)
Social preference, Sidak's multiple comparisons test, Summary (Magel2-null mice [2]; [9]): **** (**** = p < 0.0001)
Social preference, Sidak's multiple comparisons test, Summary (Magel2-null mice [2]; [10]): ns
Social preference, Sidak's multiple comparisons test, Summary (Magel2-null mice [2]; WT + NNZ2591 (100 mg/kg) vs. Magel2-null + NNZ2591 (200 mg/kg)): ns
Social preference, Sidak's multiple comparisons test, Summary (Magel2-null mice [2]; [11]): ns
Social preference, Sidak's multiple comparisons test, Summary (Magel2-null mice [2]; WT + Vehicle vs. WT + NNZ2591 (100 mg/kg)): ns
Social preference, Sidak's multiple comparisons test, Summary (Magel2-null mice [2]; [12]): ns
Insulin (mean ± SEM) (Magel2-null mice [3]; Magel2-null + NNZ2591 100 mg/kg): 143 pM
Insulin (mean ± SEM) (Magel2-null mice [3]; [13]): 119 pM
Insulin, significance (Magel2-null mice [3]; [13]): (ns)
Insulin (mean ± SEM) (Magel2-null mice [3]; WT + NNZ2591 100 mg/kg): 112 pM
Insulin (mean ± SEM) (Magel2-null mice [3]; WT + NNZ2591 200 mg/kg): 115 pM
Elevated plus maze (time in open arm), Sidak's multiple comparisons test, Summary (Magel2-null mice [4]; [8]): **** (**** = p < 0.0001)
Elevated plus maze (time in open arm), Sidak's multiple comparisons test, Summary (Magel2-null mice [4]; [9]): **** (**** = p < 0.0001)
Elevated plus maze (time in open arm), Sidak's multiple comparisons test, Summary (Magel2-null mice [4]; [10]): ns
Elevated plus maze (time in open arm), Sidak's multiple comparisons test, Summary (Magel2-null mice [4]; [11]): ns
Elevated plus maze (time in open arm), Sidak's multiple comparisons test, Summary (Magel2-null mice [4]; WT + Vehicle vs WT + NNZ2591 (100 mg/kg)): ns
Elevated plus maze (time in open arm), Sidak's multiple comparisons test, Summary (Magel2-null mice [4]; [12]): ns
Social interaction, Sidak's multiple comparisons test, Summary (Magel2-null mice [5]; Magel2-null + NNZ2591 (100 mg/kg) vs. Magel2-null + NNZ2591 (200 mg/kg)): ns
Social interaction, Sidak's multiple comparisons test, Summary (Magel2-null mice [5]; [8]): **** (**** = p < 0.0001)
Social interaction, Sidak's multiple comparisons test, Summary (Magel2-null mice [5]; [9]): **** (**** = p < 0.0001)
Social interaction, Sidak's multiple comparisons test, Summary (Magel2-null mice [5]; [10]): ns
Social interaction, Sidak's multiple comparisons test, Summary (Magel2-null mice [5]; [11]): ns
Social interaction, Sidak's multiple comparisons test, Summary (Magel2-null mice [5]; WT + Vehicle v. WT + NNZ2591 (100 mg/kg)): ns
Social interaction, Sidak's multiple comparisons test, Summary (Magel2-null mice [5]; [12]): ns
